Results: US7220784B2, “Substituted stilbenes and their reactions” (priority 2000, dated 2007)
Where two headings read alike, the source gives them in different places.

Key:
[1] = system: H460 human lung xenograft; assay: Tumour damage in H460 human lung xenograft grown subcutaneously; format: in vivo; conditions: 0.75×MTD, i.p., twenty four hours following injection
Description: The effect of compounds 97–64H and 97–96 (quinone compound) was tested on H460 human lung xenograft grown subcutaneously by injecting equitoxic doses of the compounds (0.75×MTD).

[2] = Photoisomerisation of trans-CA-4 ex situ, composition of mixture (GC); format: physicochemical
K562 cells = assay: In situ ultra violet irradiation of dosed K562 cells, IC50; format: cell-based, human; conditions: Homo sapiens, read-out: IC50 K562
[3] = GC, benzene, 400 W Hg lamp, 0 mins (Table 3)
[4] = GC, benzene, 400 W Hg lamp, 0.5 mins (Table 3)
[5] = GC, benzene, 400 W Hg lamp, 1.5 mins (Table 3)
[6] = GC, benzene, 400 W Hg lamp, 3.0 mins (Table 3)
[7] = GC, benzene, 400 W Hg lamp, 5.0 mins (Table 3)
[8] = GC, benzene, 400 W Hg lamp, 6.5 mins (Table 3)
[9] = GC, benzene, 400 W Hg lamp, 8.0 mins (Table 3)
[10] = GC, benzene, 400 W Hg lamp, 10.0 mins (Table 3)
[11] = GC, benzene, 400 W Hg lamp, 12.5 mins (Table 3)
[12] = GC, benzene, 400 W Hg lamp, 15.0 mins (Table 3)
[13] = GC, benzene, 400 W Hg lamp, 17.5 mins (Table 3)
[14] = GC, benzene, 400 W Hg lamp, 20.0 mins (Table 3)
[15] = photoisomerisation ex situ, 0 mins (Table 5)
[16] = photoisomerisation ex situ, 0.5 mins (Table 5)
[17] = photoisomerisation ex situ, 1.0 mins (Table 5)
[18] = photoisomerisation ex situ, 1.5 mins (Table 5)
[19] = photoisomerisation ex situ, 2.0 mins (Table 5)
[20] = photoisomerisation ex situ, 3.0 mins (Table 5)
[21] = photoisomerisation ex situ, 4.0 mins (Table 5)
[22] = photoisomerisation ex situ, 5.0 mins (Table 5)
[23] = photoisomerisation ex situ, 7.5 mins (Table 5)
[24] = photoisomerisation ex situ, 10.0 mins (Table 5)
[25] = photoisomerisation ex situ, 12.5 mins (Table 5)
[26] = photoisomerisation ex situ, 15.0 mins (Table 5)
[27] = photoisomerisation ex situ, 17.5 mins (Table 5)
[28] = photoisomerisation ex situ, 20.0 mins (Table 5)

Compound: COc1ccc(C=Cc2cc(OC)c(OC)c(OC)c2)cc1F [Compound 97-64H]
- tumour damage [1]: extensive damage to the tumours

Compound: COc1ccc(/C=C/c2cc(OC)c(OC)c(OC)c2)cc1O [trans-CA-4, trans-combretastatin A-4]
- % cis-stilbene [2, 3]: 0%
- % phenanthrene [2, 3]: 0%
- % trans-stilbene [2, 3]: 100%
- % cis-stilbene [2, 4]: 0%
- % phenanthrene [2, 4]: 0%
- % trans-stilbene [2, 4]: 100%
- % cis-stilbene [2, 5]: 0%
- % phenanthrene [2, 5]: 0%
- % trans-stilbene [2, 5]: 100%
- % cis-stilbene [2, 6]: 13%
- % phenanthrene [2, 6]: 0%
- % trans-stilbene [2, 6]: 87%
- % cis-stilbene [2, 7]: 31%
- % phenanthrene [2, 7]: 0%
- % trans-stilbene [2, 7]: 69%
- % cis-stilbene [2, 8]: 45%
- % phenanthrene [2, 8]: 0%
- % trans-stilbene [2, 8]: 55%
- % cis-stilbene [2, 9]: 47%
- % phenanthrene [2, 9]: 0%
- % trans-stilbene [2, 9]: 53%
- % cis-stilbene [2, 10]: 53%
- % phenanthrene [2, 10]: 0%
- % trans-stilbene [2, 10]: 44%
- % cis-stilbene [2, 11]: 68%
- % phenanthrene [2, 11]: 0%
- % trans-stilbene [2, 11]: 32%
- % cis-stilbene [2, 12]: 71%
- % phenanthrene [2, 12]: 0%
- % trans-stilbene [2, 12]: 29%
- % cis-stilbene [2, 13]: 74%
- % phenanthrene [2, 13]: 4%
- % trans-stilbene [2, 13]: 22%
- % cis-stilbene [2, 14]: 73%
- % phenanthrene [2, 14]: 4%
- % trans-stilbene [2, 14]: 23%
- % cis [2, 15]: 0.3%
- % phenanthrene [2, 15]: 0%
- % trans [2, 15]: 99.7%
- % cis [2, 16]: 2.0%
- % phenanthrene [2, 16]: 0%
- % trans [2, 16]: 98.0%
- % cis [2, 17]: 3.9%
- % phenanthrene [2, 17]: 0%
- % trans [2, 17]: 96.1%
- % cis [2, 18]: 6.3%
- % phenanthrene [2, 18]: 0%
- % trans [2, 18]: 93.7%
- % cis [2, 19]: 7.3%
- % phenanthrene [2, 19]: 0%
- % trans [2, 19]: 92.7%
- % cis [2, 20]: 25.7%
- % phenanthrene [2, 20]: 0%
- % trans [2, 20]: 74.3%
- % cis [2, 21]: 37.3%
- % phenanthrene [2, 21]: 0%
- % trans [2, 21]: 62.3%
- % cis [2, 22]: 47.9%
- % phenanthrene [2, 22]: 0%
- % trans [2, 22]: 52.1%
- % cis [2, 23]: 56.6%
- % phenanthrene [2, 23]: 1.4%
- % trans [2, 23]: 40.2%
- % cis [2, 24]: 63.1%
- % phenanthrene [2, 24]: 2.9%
- % trans [2, 24]: 34.0%
- % cis [2, 25]: 64.4%
- % phenanthrene [2, 25]: 3.4%
- % trans [2, 25]: 32.2%
- % cis [2, 26]: 64.6%
- % phenanthrene [2, 26]: 3.7%
- % trans [2, 26]: 31.7%
- % cis [2, 27]: 65.1%
- % phenanthrene [2, 27]: 4.1%
- % trans [2, 27]: 30.8%
- % cis [2, 28]: 65.7%
- % phenanthrene [2, 28]: 3.7%
- % trans [2, 28]: 30.6%
- IC50 (K562 cells; K562, 0 h, in situ UV 0 mins (Table 6)): 1200 nM
- IC50 (K562 cells; K562, 1 min, in situ UV 1 mins (Table 6)): 3.6 nM
- IC50 (K562 cells; K562, 2 min, in situ UV 2 mins (Table 6)): 2.9 nM
- IC50 (K562 cells; K562, 0.05 h, in situ UV 3 mins (Table 6)): 1.7 nM
- IC50 (K562 cells; K562, 4 min, in situ UV 4 mins (Table 6)): 4.4 nM
- IC50 (K562 cells; K562, 5 min, in situ UV 5 mins (Table 6)): 2.7 nM
- IC50 (K562 cells; K562, 0.1 h, in situ UV 6 mins (Table 6)): 2.9 nM
- IC50 (K562 cells; K562, 7 min, in situ UV 7 mins (Table 6)): 1.9 nM
- IC50 (K562 cells; K562, 8 min, in situ UV 8 mins (Table 6)): 3 nM
- IC50 (K562 cells; K562, 0.15 h, in situ UV 9 mins (Table 6)): 2.5 nM
- IC50 (K562 cells; K562, 12.5 min, in situ UV 12.5 mins (Table 6)): 2.4 nM
- IC50 (K562 cells; K562, 0.25 h, in situ UV 15.0 mins (Table 6)): 2 nM
- IC50 (K562 cells; K562, 17.5 min, in situ UV 17.5 mins (Table 6)): 1.7 nM
- IC50 (K562 cells; K562, 20 min, in situ UV 20.0 mins (Table 6)): 2.7 nM
- IC50 (K562 cells; K562, in situ UV, repeated experiment, 0 secs (Table 7)): 580 nM
- IC50 (K562 cells; K562, in situ UV, repeated experiment, 5 secs (Table 7)): 35 nM
- IC50 (K562 cells; K562, in situ UV, repeated experiment, 10 secs (Table 7)): 40 nM
- IC50 (K562 cells; K562, in situ UV, repeated experiment, 15 secs (Table 7)): 20 nM
- IC50 (K562 cells; K562, in situ UV, repeated experiment, 20 secs (Table 7)): 18 nM
- IC50 (K562 cells; K562, in situ UV, repeated experiment, 25 secs (Table 7)): 17 nM
- IC50 (K562 cells; K562, in situ UV, repeated experiment, 30 secs (Table 7)): 15 nM
- IC50 (K562 cells; K562, in situ UV, repeated experiment, 35 secs (Table 7)): 11 nM
- IC50 (K562 cells; K562, in situ UV, repeated experiment, 40 secs (Table 7)): 11 nM
- IC50 (K562 cells; K562, in situ UV, repeated experiment, 45 secs (Table 7)): 9 nM
- IC50 (K562 cells; K562, in situ UV, repeated experiment, 50 secs (Table 7)): 9 nM
- IC50 (K562 cells; K562, in situ UV, repeated experiment, 55 secs (Table 7)): 9 nM
- IC50 (K562 cells; K562, in situ UV, repeated experiment, 60 secs (Table 7)): 8 nM
